Laboratory results as given in PMC3996151, “Safety and pharmacological characterization of the molecular tweezer CLR01 – a broad-spectrum inhibitor of amyloid proteins’ toxicity” (BMC Pharmacology & Toxicology, 2014).
Where two headings read alike, the source gives them in different places. Marks after values point to notes of the source that are not given here.

Experiments:
[1] = parameters: method as in PMID 23183235; conditions: mouse liver microsomes; cited from earlier work
α-synuclein (α-syn) = test system: α-synuclein (α-syn); parameters: method as in PMID 22373667; conditions: up to 10 μM in the water environment; cited from earlier work
[2] = test system: nerve growth factor-differentiated rat pheochromocytoma cells; parameters: method as in PMID 21916458, PMID 22860214; conditions: cited from earlier work
[3] = molecular target: Poly [ADP-ribose] polymerase 1 (PARP-1); parameters: method as in T. Schrader, unpublished results; conditions: enzyme concentration of 2.3 nM; ref T. Schrader, unpublished results; cited from earlier work
[4] = parameters: method as in PMID 23183235; conditions: mouse plasma; cited from earlier work
[5] = parameters: method as in Lopes et al., submitted; conditions: SC pumps; ref Lopes et al., submitted; cited from earlier work
transthyretin = test system: transthyretin; parameters: method as in PMID 24459092; conditions: peripheral administration, 1.2 mg/kg/day; cited from earlier work
[6] = parameters: method as in PMID 23183235; conditions: human plasma; cited from earlier work
C57BL/6J mice = test: Chronic toxicity: daily IP injection for 30 days, behaviour, histopathology and serum chemistry; format: in vivo, mouse; conditions: for Alanine aminotransferase / Albumin / Alkaline phosphatase / Aspartate aminotransferase / Blood urea nitrogen / Cholesterol / Creatinine / Glucose / Lactate dehydrogenase / Total bilirubin / Total protein: serum, 2-m old WT mice, chronic, 30 day, mean
Description: For acute-toxicity studies, 2-m old C57BL/6J mice were administered saline-vehicle, 10 mg/kg, or 100 mg/kg CLR01 by a single intraperitoneal (IP) injection. The mice were sacrificed 24-h after the injection. For chronic toxicity studies, 2-m old C57BL/6J mice were administered saline-vehicle, 3 mg/kg, or 10 mg/kg CLR01 by daily IP injection for 30 days. Acute-study mice were visually monitored for 1 h after injection and then every 50 min for 10 min over the first 6 h of the experiment for changes in activity and behavior. The mice also were monitored every 110 min for 10 min during the last 6 h of the experiment until they were sacrificed. Chronic-study mice were monitored for 1 h after injection and then 3 times a day for 10 min each, every day of the first week. During that week there were no appreciable changes in the behavior, appearance, or weight of the mice. Therefore, monitoring was reduced to twice a day during the remainder of the experiment. On all occasions, the mice were monitored for any signs of severe toxicity, including bruising or bleeding, pale mucous membranes or extremities, diarrhea, dehydration, neurological signs, such as difficulty ambulating or paralysis, tachypnea or dyspnea, or abdominal distension.
Following the treatment, mice were anesthetized with pentobarbital and blood was collected by cardiac puncture and placed in tubes containing a clot activator for serum separation (Capiject T-MG tubes, Terumo Medical Products, Somerset, NJ). Then, the lungs were filled through the trachea with 4% paraformaldehyde to prevent collapse, and tissues (brain, heart-lung, liver, kidney, and spleen) were collected and fixed for 72 h in 4% paraformaldehyde at a ratio of ~1:10 tissue:fixative (v/v). Tissues then were transferred into a 70%-ethanol solution and transferred to the UCLA Mouse Pathology Core for paraffin embedding, sectioning, and tissue histopathology analysis. Serum was analyzed by the UCLA Division of Laboratory Animal Medicine (DLAM) Animal Serology & Molecular Diagnostic Laboratory for an 11-panel serum chemical analysis using the ACE Alera Clinical Chemistry system (Alfa Wassermann Diagnostic Technologies, West Caldwell, NJ). The panel included: alanine aminotransferase, aspartate aminotransferase, albumin, alkaline phosphatase, creatinine, total bilirubin, lactate dehydrogenase, blood urea nitrogen, cholesterol, total protein, and glucose.
If CLR01 indeed operates by a process-specific mechanism and remodels the abnormal aggregation of amyloidogenic proteins at substantially lower concentrations than concentrations that would perturb normal physiological processes, one would expect the compound to have a high therapeutic index. To calculate the therapeutic index, a lethal dose must be reached. […] The next rational step was to test the safety margin of CLR01 in vivo. Based on the in vitro and cell culture data, we expected that 100 mg/kg would be lethal to mice and therefore used it as the highest dose in our safety-evaluation experiments. We assessed the safety of CLR01 in 2-m old, male, WT mice either 24 h following a single IP injection of 10 or 100 mg/kg (acute administration) or after daily IP injection of 3 or 10 mg/kg for 30 days (chronic administration). Following euthanasia, serum was collected for chemical analysis and tissues were harvested for histopathology evaluation.

[7] = Solubility in aqueous solutions; format: physicochemical
[8] = test system: cytochrome P450 system, five major isoforms; parameters: method as in PMID 23183235; conditions: half-maximal inhibition concentration values above levels expected to cause drug–drug interactions; cited from earlier work
[9] = daily IP 3 or 10 mg/kg for 30 days

O=P(O)(O)Oc1c2c(c(OP(=O)(O)O)c3c1C1CC3c3cc4c(cc31)C1CC4c3ccccc31)C1CC2c2cc3c(cc21)C1CC3c2ccccc21 [CLR01]
Stability [1]: 100% | Effect in zebrafish model of α-syn toxicity (α-synuclein (α-syn)): prevented deformation and mortality | Concentration at which a mild decrease in cell viability was observed [2]: 400 µM | Concentration up to which no toxicity was detected [2]: up to 200 μM | IC50 [3]: 3.3 µM | Stability [4]: 100% | Administered CLR01 in the blood at steady-state [5]: 0.7% | Effect on transthyretin pathology (transthyretin): significant decrease in transthyretin deposition | Stability [6]: 100% | Chronically administered dose without toxicity relative to the efficacious dose of 40 μg/kg/day (C57BL/6J mice; 10 mg/kg/day): 250 times | Liver histopathology (C57BL/6J mice; daily IP 3 mg/kg for 30 days, a few mice, judged not pathogenic and unlikely related to treatment): mild-to-moderate multifocal extramedullary hematopoiesis in the liver | Pancreas finding (C57BL/6J mice; daily IP 3 mg/kg for 30 days, two mice, unlikely related to treatment): Mild pancreatitis | Reduction in blood cholesterol compared to the control group (C57BL/6J mice; daily IP 10 mg/kg for 30 days): ~ 40% | Tissue histopathology (C57BL/6J mice; daily IP 10 mg/kg for 30 days): no signs of tissue pathology or liver necrosis | Behavior (levels and type of activity and grooming) (C57BL/6J mice; [9]): behaved indistinguishably from control mice | Histopathology of heart, lung, spleen and brain (C57BL/6J mice; [9]): indistinguishable from vehicle-treated mice | Alanine aminotransferase (C57BL/6J mice; daily IP dose 3 mg/kg, N = 10): 43.1 U/L | Albumin (C57BL/6J mice; daily IP dose 3 mg/kg, N = 10): 2.8 g/dL | Alkaline phosphatase (C57BL/6J mice; daily IP dose 3 mg/kg, N = 10): 104.4 U/L | Aspartate aminotransferase (C57BL/6J mice; daily IP dose 3 mg/kg, N = 10): 150.9 U/L | Blood urea nitrogen (C57BL/6J mice; daily IP dose 3 mg/kg, N = 10): 22.3 mg/dL | Cholesterol (C57BL/6J mice; daily IP dose 3 mg/kg, N = 10): 80.9 mg/dL | Creatinine (C57BL/6J mice; daily IP dose 3 mg/kg, N = 10): 0.3 mg/dL | Glucose (C57BL/6J mice; daily IP dose 3 mg/kg, N = 10): 256.7 mg/dL | Lactate dehydrogenase (C57BL/6J mice; daily IP dose 3 mg/kg, N = 10): 507.0 U/L | Total bilirubin (C57BL/6J mice; daily IP dose 3 mg/kg, N = 10): 0.2 mg/dL | Total protein (C57BL/6J mice; daily IP dose 3 mg/kg, N = 10): 4.7 g/dL | Alanine aminotransferase (C57BL/6J mice; daily IP dose 10 mg/kg, N = 9): 38.4 U/L | Albumin (C57BL/6J mice; daily IP dose 10 mg/kg, N = 9): 2.7 g/dL | Alkaline phosphatase (C57BL/6J mice; daily IP dose 10 mg/kg, N = 9): 106.1 U/L | Aspartate aminotransferase (C57BL/6J mice; daily IP dose 10 mg/kg, N = 9): 236.2 U/L | Blood urea nitrogen (C57BL/6J mice; daily IP dose 10 mg/kg, N = 9): 24.1 mg/dL | Creatinine (C57BL/6J mice; daily IP dose 10 mg/kg, N = 9): 0.2 mg/dL | Glucose (C57BL/6J mice; daily IP dose 10 mg/kg, N = 9): 233.9 mg/dL | Lactate dehydrogenase (C57BL/6J mice; daily IP dose 10 mg/kg, N = 9): 483.0 U/L | Total bilirubin (C57BL/6J mice; daily IP dose 10 mg/kg, N = 9): 0.2 mg/dL | Total protein (C57BL/6J mice; daily IP dose 10 mg/kg, N = 9): 4.6 g/dL | Cholesterol (C57BL/6J mice; daily IP dose 10 mg/kg, N = 9, p < 0.01 vs control): 56.8** mg/dL | Solubility in aqueous solutions [7]: soluble at millimolar concentrations | Inhibition of five major cytochrome P450 isoforms [8]: minimal inhibition
